Data: patent US6448269B1 (Eli Lilly and Company, priority 1993, dated 2002)
Structures can show the parent of a compound that is named as a salt.

Key:
GPIIb-IIIa = target: T1, GPIIb-IIIa (Homo sapiens, UniProt P05106+P08514); assay: ELISA IIb-IIIa assay (fibrinogen binding to immobilized GPIIb-IIIa); conditions: purified platelet GPIIb-IIIa receptor coated on ELISA plates; biotin-labeled fibrinogen 10 nM, 3 hours at 25° C.
T1 construct: Purified platelet GPIIb-IIIa receptor was prepared as described by Fitzgerald; from tissue; host or cells: platelets
T1 sequence (P08514 32-887 limits assumed): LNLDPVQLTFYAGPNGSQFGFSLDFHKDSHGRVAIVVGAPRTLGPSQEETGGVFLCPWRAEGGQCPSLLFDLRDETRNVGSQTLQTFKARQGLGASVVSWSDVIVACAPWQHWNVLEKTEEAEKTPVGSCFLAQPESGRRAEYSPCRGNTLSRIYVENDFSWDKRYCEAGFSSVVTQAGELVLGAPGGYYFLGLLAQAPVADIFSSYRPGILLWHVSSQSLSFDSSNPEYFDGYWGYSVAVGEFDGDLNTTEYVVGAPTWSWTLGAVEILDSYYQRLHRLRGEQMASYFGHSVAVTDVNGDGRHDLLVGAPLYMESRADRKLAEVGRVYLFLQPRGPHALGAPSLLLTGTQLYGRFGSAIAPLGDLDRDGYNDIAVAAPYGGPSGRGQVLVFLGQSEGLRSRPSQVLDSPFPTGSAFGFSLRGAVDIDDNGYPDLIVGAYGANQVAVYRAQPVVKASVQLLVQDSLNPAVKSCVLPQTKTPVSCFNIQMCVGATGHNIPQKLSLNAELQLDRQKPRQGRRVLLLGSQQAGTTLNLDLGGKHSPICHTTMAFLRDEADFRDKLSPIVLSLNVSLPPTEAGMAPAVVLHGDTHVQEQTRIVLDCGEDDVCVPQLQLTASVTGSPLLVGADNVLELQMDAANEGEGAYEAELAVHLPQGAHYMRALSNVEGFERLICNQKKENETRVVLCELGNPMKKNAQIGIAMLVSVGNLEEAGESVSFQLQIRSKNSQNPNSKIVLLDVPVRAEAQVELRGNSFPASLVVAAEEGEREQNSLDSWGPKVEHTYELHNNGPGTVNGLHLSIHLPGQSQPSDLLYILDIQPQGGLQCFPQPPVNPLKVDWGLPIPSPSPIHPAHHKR
T1 sequence (P05106 27-788): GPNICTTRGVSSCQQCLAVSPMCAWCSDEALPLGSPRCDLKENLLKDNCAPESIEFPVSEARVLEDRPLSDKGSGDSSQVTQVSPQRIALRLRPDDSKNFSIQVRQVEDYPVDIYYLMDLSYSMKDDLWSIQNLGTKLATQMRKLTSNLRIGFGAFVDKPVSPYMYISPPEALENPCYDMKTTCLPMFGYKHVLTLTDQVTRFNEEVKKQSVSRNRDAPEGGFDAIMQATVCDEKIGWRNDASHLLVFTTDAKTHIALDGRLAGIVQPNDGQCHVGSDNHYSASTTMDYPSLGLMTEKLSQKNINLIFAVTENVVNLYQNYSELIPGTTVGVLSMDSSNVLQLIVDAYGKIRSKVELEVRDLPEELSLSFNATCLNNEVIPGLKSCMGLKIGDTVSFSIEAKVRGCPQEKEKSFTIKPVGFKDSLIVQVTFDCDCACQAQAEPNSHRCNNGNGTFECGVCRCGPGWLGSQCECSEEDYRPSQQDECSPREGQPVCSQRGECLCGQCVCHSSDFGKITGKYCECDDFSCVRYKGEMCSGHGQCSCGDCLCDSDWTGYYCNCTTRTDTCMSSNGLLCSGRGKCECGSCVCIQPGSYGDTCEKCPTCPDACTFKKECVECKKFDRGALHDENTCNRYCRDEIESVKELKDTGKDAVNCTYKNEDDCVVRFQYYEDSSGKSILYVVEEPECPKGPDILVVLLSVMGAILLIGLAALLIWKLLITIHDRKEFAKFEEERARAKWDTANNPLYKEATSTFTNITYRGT
Procedure, shortened: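 Purified platelet GPIIb-IIIa was coated overnight at 4° C in Tris/NaCl/CaCl2 pH 7.4 and BSA-blocked. Biotinylated fibrinogen (10 nM final) was incubated with test compounds for 3 h at 25° C in Ca2+-containing binding buffer. Bound ligand was detected by anti-biotin–alkaline phosphatase with pNPP, OD 405.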

[1] = system: human platelet-rich plasma; assay: Platelet aggregation assay (Aggregation-Human PRP/ADP); format: cell-based; conditions: 1 min; human platelet-rich plasma incubated with compound 1 minute at 37° C.; ADP-induced aggregation; read-out: Agg: Human PRP/ADP IC50uM
Procedure, shortened: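 Citrated human PRP (~200-400,000 platelets/μl) from healthy volunteers, stirred, incubated with compound 1 min at 37° C. Aggregation was then triggered, most often by ADP 5 μM, or by 1 μg/ml collagen, 1 μM U46619 or 0.3 μM platelet activating factor, and read in an aggregometer with platelet-poor plasma as reference.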

melting point | Structure (SMILES) | IC50 (GPIIb-IIIa) | IC50 [1]
205 to 208 °C (dec.) | N=C(N)c1ccc(C(=O)Nc2ccc3c(c2)CCC(CC(=O)O)C3=O)s1 (stereo not drawn) [Example 106] |  | 
 | N=C(N)c1ccc(NC(=O)c2ccc3c(c2)CCC(OCC(=O)O)C3)cc1 (stereo not drawn) [Example 39] | 31 nM | 0.36 µM
 | N=C(N)c1ccc(C(=O)Nc2ccc3c(c2)OCC(OCC(=O)O)C3)cc1 (stereo not drawn) [Example 41] | 46 nM | 0.3 µM
 | CCOC(=O)CC1CCc2cc(NC(=O)c3ccc(C(=N)N(C)C)cc3)ccc2O1 (racemic) [Example 73, Hydrochloride] | > 10000 nM | 1.2 µM
 | N=C(N)c1ccc(C(=O)Nc2ccc3c(c2)CCN(CC(=O)O)C3)cc1 [Example 36] | 5 nM | 0.17 µM
 | CC1(CCC(=O)O)C=Cc2cc(OCc3ccc(C(=N)N)cc3)ccc2O1 (racemic) [Example 53, rac-3-(6-(4-(Aminoiminomethyl)phenylmethoxy)-2-methyl-2H-1-benzopyran-2-yl)propanoic Acid Hydrochloride] | 720 nM | 21 µM
 | CCOCCCC(CC(=O)O)N1CCc2cc(OCCCC3CCNCC3)ccc2C1=O (stereo not drawn) [Example 22, 6-[4-(Piperidn-4-yl)propyloxy]-3,4-dihydro-1-oxo-B-(3-ethoxypropyl)-1-oxo-2(1H)-isoquinoline Propanoic Acid Trifluoroacetate] | 200 nM | 2 µM
 | N=C(N)c1ccc(C(=O)Nc2ccc3c(c2)CCC(CC(=O)O)O3)c(Cl)c1 (racemic) [Example 76, rac-(6-(N-(4-(Aminoiminomethyl)-2-chlorobenzoyl)amino)-3,4-dihydro-2H-1-benzopyran-2-yl)acetic Acid] | 14 nM | 0.56 µM
 | N=C(N)c1ccc(COc2ccc3c(c2)CCN(C(CC(=O)O)C(=O)NCCC(=O)O)C3=O)cc1 (racemic) [Example 9, (+−)-6-[[4-(Aminoiminomethyl)phenyl]methoxy]-beta-[[(2-carboxyethyl)amino]carbonyl-3,4-dihydro-1-oxo-2(1H)-isoquinoline Propanoic Acid Trifluoroacetate] | 85 nM | 0.85 µM
 | CCOC(=O)CC1CCc2cc(NC(=O)c3ccc(C(=N)NC)cc3)ccc2O1 (racemic) [Example 57, Hydrochloride] | > 10000 nM | 0.66 µM
 | CCCC(CC(=O)O)N1CCc2cc(OCc3ccc(C(=N)N)cc3)ccc2C1=O (racemic) [Example 15, (+−)-6-[[4-(Aminoiminomethyl)phenyl]methoxy]-3,4-dihydro-1-oxo-b-propyl-2 (1H)-isoquinoline Propanoic Acid Trifluoroacetate] | 500 nM | 0.23 µM
 | N=C(N)c1ccc(CCc2ccc3c(c2)CCN(CC(=O)O)C3=O)cc1 [Example 3, 6-[2-[4-(Aminoiminomethyl)phenyl]ethyl]-3,4-dihydro-1-oxo-2(1H)-isoquinoline Acetic Acid Trifluoroacetate] | 110 nM | 1 µM
 | CCCCNC(=N)c1ccc(C(=O)Nc2ccc3c(c2)CCC(CC(=O)O)O3)cc1 (racemic) [Example 84, rac-(6-(N-(4-((Butylamino)iminomethyl)benzoyl)amino)-3,4-dihydro-2H-1-benzopyran-2-yl)acetic Acid] | 5.5 nM | 0.084 µM
 | CCCCCCNC(=O)C(CC(=O)O)N1CCc2cc(OCc3ccc(C(=N)N)cc3)ccc2C1=O (racemic) [Example 5, (+−)-6-[[4-(Aminoiminomethyl)phenyl]methoxy]-3,4-dihydro-1-oxo-beta[hexylamino Carbonyl]-2(1H)-isoquinolone Propanoic Acid Trifluoroacetate] | 33 nM | 7 µM
 | N=C(NCc1ccccc1)c1ccc(C(=O)Nc2ccc3c(c2)CCC(CC(=O)O)O3)cc1 (racemic) [Example 93, rac-(3,4-Dihydro-6-(N-(4-(N′-(phenylmethylamino)iminomethyl)benzoyl)amino)-2H-1-benzopyran-2-yl)acetic Acid] | 9.4 nM | 0.086 µM
 | N=C(N)c1ccc(COc2ccc3c(c2)CCC(OCC(=O)O)C3)cc1 (stereo not drawn) [Example 23] | 190 nM | 25 µM
 | N=C(N)c1ccc(C(=O)Nc2ccc3c(c2)CCC(CC(=O)O)C3=O)c(Cl)c1 (racemic) [Example 63, rac-(6-(N-(4-Aminoiminomethyl-2-chlorobenzoyl)amino)-1-oxo-1,2,3,4-tetrahydronaphthalen-2-yl)acetic Acid] | 9.4 nM | 0.092 µM
 | N=C(N)CCCCCOc1ccc2c(c1)CCC(CC(=O)O)O2 (racemic) [Example 55, rac-(6-(5-(Aminoiminomethyl)pentoxy)-3,4-dihydro-2H-1-benzopyran-2-yl)acetic Acid Trifluoroacetate] | 3460 nM | > 100 µM
 | CCOC(=O)CC1CCc2cc(NC(=O)c3ccc(NC(=N)N)cc3)ccc2O1 (racemic) [Example 64, Ethyl rac-(6-(N-(4-((Aminoiminomethyl)amino)benzoyl)amino)-3,4-dihydro-2H-1-benzopyran-2-yl)acetate] | 800 nM | 11 µM
 | N=C(N)c1ccc(COc2ccc3c(c2)CCC(CC(=O)O)C3)cc1 (racemic) [Example 20, (+−)-6-[[(4-Aminoimidomethyl)phenyl]methoxy]-1,2,3,4-tetrahydronapthylene-2-acetic Acid Trifluoroacetate] | 300 nM | 20 µM
 | O=C(O)CN1CCc2cc(OCCCC3CCNCC3)ccc2C1 [Example 34] | 220 nM | 2.3 µM
 | CCOC(=O)CC1CCc2cc(NC(=O)c3ccc(C(=N)NC(=O)OC)cc3F)ccc2O1 (racemic) [Example 88, Ethyl rac-(3,4-Dihydro-6-(N-(2-fluoro-4-((methoxycarbonylamino)iminomethyl)benzoyl)amino)-2H-1-benzopyran-2-yl)acetate] | 99 nM | 0.084 µM
 | CCOC(=O)CCC1(C)CCc2cc(NC(=O)c3ccc(C(=N)N)cc3)ccc2O1 (racemic) [Example 50, Ethyl rac-3-(6-(N-(4-(Aminoiminomethyl)benzoyl)amino)-3,4-dihydro-2-methyl-2H-1-benzopyran-2-yl)propanoate Hydrochloride] | 3930 nM | 100 µM
